Assay results as given in ChEMBL document CHEMBL1201862, “PubChem BioAssay data set” (2004).
Where a name gives a salt, the structure may show the parent alone.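 96-well plates; 48 h exposure; 5 concentrations. Endpoints by linear interpolation between flanking doses. Not reached: highest tested concentration assigned. GI50 = concentration required for 50% inhibition of growth.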 Activity calls are given as the source filed them. Rule as the data show it: active = GI50 up to about 1.1 µM and inactive = higher.

Assays:
Test in all cases: NCI tumour cell line growth inhibition, 48 h
Hs-578T = system: Hs-578T
SR = system: SR
MDA-MB-231 = system: MDA-MB-231
LXFL 529 = system: LXFL 529
HOP-18 = system: HOP-18
786-0 = system: 786-0
DMS-273 = system: DMS-273
XF498 = system: XF498

SMILES | GI50 (Hs-578T) | GI50 (SR) | GI50 (MDA-MB-231) | GI50 (LXFL 529) | GI50 (HOP-18) | GI50 (786-0) | GI50 (DMS-273) | GI50 (XF498)
O=C1CC2(CCC(O)(c3cccc4ccccc34)C(C(=O)c3cccc4ccccc34)C2)C(=O)c2ccccc2N1 (configuration not stated) | 6.78 µM (inactive) | 14.2 µM (inactive) | 17.7 µM (inactive) |  |  |  |  | 
OC[P+](CO)(CO)C12CC3CC(CC(C3)C1)C2 | > 100 µM (inactive) | 16.7 µM (inactive) | > 100 µM (inactive) |  |  |  |  | 
CC(=O)Nc1ccc(C(=O)NN2C(=O)C(Cl)C2c2cccc([N+](=O)[O-])c2)cc1 (configuration not stated) |  | > 100 µM (inactive) |  | > 100 µM (inactive) |  |  |  | 
COc1cc(C(=O)C2CC3(CCC2(O)c2cc(OC)c(OC)c(OC)c2)CC(=O)Nc2ccccc2C3=O)cc(OC)c1OC (configuration not stated) | 91 µM (inactive) | 29.6 µM (inactive) | > 100 µM (inactive) |  |  |  |  | 
O=C1C(=C2CCCC2)CCC1CN1CCCCC1 (configuration not stated) |  | 20.7 µM (inactive) |  | 13.2 µM (inactive) | 15.3 µM (inactive) | 13.6 µM (inactive) |  | 
C=CC1=C(C)c2cc3[nH]c(c4c5nc(cc6[nH]c(cc1n2)c(C)c6CC)C=C5C(=O)C4C(=O)OC)C(CCC(=O)OC/C=C(\C)CCCC(C)CCCC(C)CCCC(C)C)C3C.C=CC1=C(C)c2cc3[nH]c(c4c5nc(cc6[nH]c(cc1n2)c(C=O)c6CC)C=C5C(=O)C4C(=O)OC)C(CCC(=O)OC/C=C(\C)CCCC(C)CCCC(C)CCCC(C)C)C3C (configuration not stated) | > 100 µM (inactive) | > 100 µM (inactive) | > 100 µM (inactive) |  |  | > 100 µM (inactive) |  | 
CCOC(=O)c1sc2nc(SC)nc3c2c1NC(=O)CN3c1cccc(F)c1 | 29.2 µM (inactive) | 70 µM (inactive) | 16.1 µM (inactive) |  |  |  |  | 
CCn1c(=O)c(C(=O)O)c(Cl)c2cc3c(cc21)OCO3 |  |  |  |  | > 100 µM (inactive) |  | > 100 µM (inactive) | > 100 µM (inactive)
COc1ccc2c(c1)Cc1c(NCCN(C)C)ccc(C(=O)NCCCN(C)CCCNC(=O)c3ccc(NCCN(C)C)c4c3Nc3ccc(OC)cc3C4)c1N2 | < 0.01 µM (active) | < 0.01 µM (active) | 0.0322 µM (active) |  |  | < 0.01 µM (active) |  | 
CC1CC(C)(O)C2C3(C)CCCC2(COC3=O)C12CCC1(CCOC1=O)O2 (configuration not stated) |  |  |  |  | > 250 µM (inactive) |  | > 250 µM (inactive) | 38.3 µM (inactive)
COc1ccc(C(=O)C(C(=O)C(=O)NC2C3CC4CC(C3)CC2C4)c2ccc(OC)cc2)cc1 (configuration not stated) |  | > 100 µM (inactive) |  | > 100 µM (inactive) | > 100 µM (inactive) | > 100 µM (inactive) | > 100 µM (inactive) | 
NCC(=O)N[C@H]1c2ccsc2/C(=N/O)[C@H]1O |  | > 100 µM (inactive) | > 100 µM (inactive) |  |  |  |  | 
CCOC(=O)c1csc(NC(=O)C(C)N2CCCCC2)n1 (configuration not stated) |  | 2.51 µM (inactive) | > 100 µM (inactive) |  |  |  |  | 
CC1(C)CC(=O)c2c(nc3c4c([nH]c(-c5ccc([N+](=O)[O-])cc5)c24)CC(C)(C)C3)C1 | 56.5 µM (inactive) | 1.07 µM (active) | 43.6 µM (inactive) |  |  | 21.3 µM (inactive) |  | 
COc1ccc(C2=C(N)c3c(Cl)cccc3C2=O)cc1 | 26.1 µM (inactive) |  | 80.2 µM (inactive) |  |  | > 100 µM (inactive) |  | 
O=C(C1C(c2ccccc2)N1C(c1ccccc1)c1ccccc1)C1C(c2ccccc2)N1C(c1ccccc1)c1ccccc1 (configuration not stated) | 20.2 µM (inactive) | 3.51 µM (inactive) | 19.8 µM (inactive) |  |  | 21.3 µM (inactive) |  | 
N#Cc1nnn(-c2ccc(Br)cc2)c1O | > 100 µM (inactive) |  | > 100 µM (inactive) |  |  | > 100 µM (inactive) |  | 
O=c1c2ccccc2ncn1COCc1ccccc1 |  | > 100 µM (inactive) |  |  |  | > 100 µM (inactive) |  | 
NC1C(O)C(O)C(CO)OC1n1cc(F)c(=O)[nH]c1=O (configuration not stated) |  | > 100 µM (inactive) |  | > 100 µM (inactive) | > 100 µM (inactive) |  | > 100 µM (inactive) | 
CC(=O)[C@H]1CC[C@@H]2[C@]1(C)CC=C1[C@]23C=C[C@]2(C[C@@H](O)CC[C@]12C)C(C(=O)O)C3C(=O)O (some centres not stated) | > 100 µM (inactive) |  | > 100 µM (inactive) |  |  | > 100 µM (inactive) |  | 
Cn1c(=O)c2nc3c(=O)n(C)c(=O)n(CC(N)=O)c3nc2n(C)c1=O | > 100 µM (inactive) | > 100 µM (inactive) | > 100 µM (inactive) |  |  | > 100 µM (inactive) |  | 
CC(C)CCCC(C)[C@H]1CCC(C2C[C@@H](O)[C@@H]3CC(O)[C@@H](O)C[C@]3(CO)C2=O)[C@]1(C)CCO (some centres not stated) |  |  |  |  | 23.7 µM (inactive) |  | 32.3 µM (inactive) | > 42.9 µM (inactive)
Cc1ccc2c(O)cc(-c3sccc3C)nc2n1 | 0.794 µM (active) | 0.122 µM (active) | 2.48 µM (inactive) |  |  | 0.711 µM (active) |  | 
CCOC(=O)CSC(=O)NCCCl |  |  |  | > 100 µM (inactive) |  | > 100 µM (inactive) | > 100 µM (inactive) | 
O=C1Cc2c([nH]c3cc(Br)ccc23)-c2ccccc2N1 | 14.8 µM (inactive) | 21.9 µM (inactive) | 22.8 µM (inactive) |  |  | 36 µM (inactive) |  | 
CCCCOC(=O)CC(CC(=O)OCCCC)(OC(C)=O)C(=O)OCCCC [ACETYLTRIBUTYL CITRATE] | > 123 µM (inactive) | 14.7 µM (inactive) | > 200 µM (inactive) |  |  | > 200 µM (inactive) |  | 
C=C[C@@](C)(/C=C/c1ccc(O)cc1)CCC=C(C)C [BAKUCHIOL] | 20.9 µM (inactive) | 16.5 µM (inactive) | 18.6 µM (inactive) |  |  |  |  | 
C[C@]12CC[C@H](O)CC1=CC[C@@H]1[C@@H]2CC[C@]2(C)C(=O)CC[C@@H]12 [PRASTERONE] | 45.6 µM (inactive) | > 100 µM (inactive) |  |  |  | > 100 µM (inactive) |  | 
